pIC50: −log10 of the molar value.
Legend:
[1] = molecular target: ALK tyrosine kinase receptor (Homo sapiens) (UniProt Q9UM73); assay: ALK(h) Eurofins kinase panel; settings: Compound concentration 1.0 uM
[2] = molecular target: Tyrosine-protein kinase ABL2 (Homo sapiens) (UniProt P42684); assay: Arg(h) Eurofins kinase panel; settings: Compound concentration 1.0 uM
[3] = molecular target: Calcium/calmodulin-dependent protein kinase kinase 2 (Homo sapiens) (UniProt Q96RR4); assay: CaMKK2(h) Eurofins kinase panel; settings: Compound concentration 1.0 uM
[4] = molecular target: Casein kinase I isoform gamma-3 (Homo sapiens) (UniProt Q9Y6M4); assay: CK1gamma3(h) Eurofins kinase panel; settings: Compound concentration 1.0 uM
[5] = molecular target: T1, Ephrin type-A receptor 3 (Homo sapiens) (UniProt P29320); assay: EphA3(h) Eurofins kinase panel; settings: Compound concentration 1.0 uM
T1 sequence (whole entry): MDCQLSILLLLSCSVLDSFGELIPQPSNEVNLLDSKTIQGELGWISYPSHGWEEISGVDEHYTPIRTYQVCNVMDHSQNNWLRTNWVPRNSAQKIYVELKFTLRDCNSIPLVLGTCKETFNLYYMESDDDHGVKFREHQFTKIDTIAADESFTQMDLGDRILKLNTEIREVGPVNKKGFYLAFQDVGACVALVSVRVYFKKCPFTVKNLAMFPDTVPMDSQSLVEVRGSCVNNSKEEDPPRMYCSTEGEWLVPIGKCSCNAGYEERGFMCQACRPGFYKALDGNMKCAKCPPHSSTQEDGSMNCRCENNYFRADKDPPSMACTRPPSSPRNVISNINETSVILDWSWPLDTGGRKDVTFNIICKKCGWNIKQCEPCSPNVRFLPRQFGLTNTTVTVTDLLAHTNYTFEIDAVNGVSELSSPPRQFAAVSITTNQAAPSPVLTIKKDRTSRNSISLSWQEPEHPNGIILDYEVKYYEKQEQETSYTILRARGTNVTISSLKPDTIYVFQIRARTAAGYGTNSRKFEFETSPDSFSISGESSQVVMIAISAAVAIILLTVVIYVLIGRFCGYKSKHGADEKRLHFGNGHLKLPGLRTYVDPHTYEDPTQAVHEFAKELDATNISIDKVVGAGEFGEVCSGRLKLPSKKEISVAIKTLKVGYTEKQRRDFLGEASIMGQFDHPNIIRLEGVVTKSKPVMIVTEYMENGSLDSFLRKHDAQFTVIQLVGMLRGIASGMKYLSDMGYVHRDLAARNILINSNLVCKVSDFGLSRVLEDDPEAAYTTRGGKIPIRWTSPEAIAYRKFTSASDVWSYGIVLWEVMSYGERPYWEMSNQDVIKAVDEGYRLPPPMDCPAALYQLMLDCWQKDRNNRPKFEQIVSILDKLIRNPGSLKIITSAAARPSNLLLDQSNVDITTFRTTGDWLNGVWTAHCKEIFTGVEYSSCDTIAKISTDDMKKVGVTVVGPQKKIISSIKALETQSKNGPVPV

[6] = molecular target: Homeodomain-interacting protein kinase 2 (Homo sapiens) (UniProt Q9H2X6); assay: HIPK2(h) Eurofins kinase panel; settings: Compound concentration 1.0 uM
[7] = molecular target: Insulin-like growth factor 1 receptor (Homo sapiens) (UniProt P08069); assay: IGF-1R(h), activated Eurofins kinase panel; settings: Compound concentration 1.0 uM
[8] = molecular target: mTOR/FKBP12A/FKBP12B (Homo sapiens) (UniProt P62942+P68106+P42345); assay: mTOR/FKBP12(h) Eurofins kinase panel; type: protein-complex assay; settings: Compound concentration 1.0 uM
[9] = molecular target: Protein kinase C delta type (Homo sapiens) (UniProt Q05655); assay: PKCdelta (h) Eurofins kinase panel; settings: Compound concentration 1.0 uM
[10] = molecular target: Proto-oncogene tyrosine-protein kinase receptor Ret (Homo sapiens) (UniProt P07949); assay: Ret(h) Eurofins kinase panel; settings: Compound concentration 1.0 uM
[11] = molecular target: T2, Tyrosine-protein kinase Tec (Homo sapiens) (UniProt P42680); assay: Tec(h) activated Eurofins kinase panel; settings: Compound concentration 1.0 uM
T2 sequence (whole entry): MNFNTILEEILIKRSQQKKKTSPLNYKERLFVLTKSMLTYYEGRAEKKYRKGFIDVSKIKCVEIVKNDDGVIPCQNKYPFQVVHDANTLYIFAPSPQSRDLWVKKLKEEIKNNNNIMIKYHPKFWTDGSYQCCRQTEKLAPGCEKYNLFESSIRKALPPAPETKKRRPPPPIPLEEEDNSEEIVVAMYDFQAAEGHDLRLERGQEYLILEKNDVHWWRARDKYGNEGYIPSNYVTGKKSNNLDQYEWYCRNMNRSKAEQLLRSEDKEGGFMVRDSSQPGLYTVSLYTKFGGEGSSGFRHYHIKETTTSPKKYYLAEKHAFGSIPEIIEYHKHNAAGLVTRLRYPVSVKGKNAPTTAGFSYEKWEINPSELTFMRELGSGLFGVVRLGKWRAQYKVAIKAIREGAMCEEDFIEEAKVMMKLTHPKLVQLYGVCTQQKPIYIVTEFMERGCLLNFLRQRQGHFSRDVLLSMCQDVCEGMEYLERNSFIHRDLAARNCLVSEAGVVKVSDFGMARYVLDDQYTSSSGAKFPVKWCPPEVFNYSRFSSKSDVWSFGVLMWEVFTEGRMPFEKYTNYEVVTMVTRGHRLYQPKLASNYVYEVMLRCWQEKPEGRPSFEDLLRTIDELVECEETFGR

[12] = molecular target: T3, Serine/threonine-protein kinase tousled-like 1 (Homo sapiens) (UniProt Q9UKI8); assay: TLK1(h) Eurofins kinase panel; settings: Compound concentration 1.0 uM
T3 sequence (whole entry): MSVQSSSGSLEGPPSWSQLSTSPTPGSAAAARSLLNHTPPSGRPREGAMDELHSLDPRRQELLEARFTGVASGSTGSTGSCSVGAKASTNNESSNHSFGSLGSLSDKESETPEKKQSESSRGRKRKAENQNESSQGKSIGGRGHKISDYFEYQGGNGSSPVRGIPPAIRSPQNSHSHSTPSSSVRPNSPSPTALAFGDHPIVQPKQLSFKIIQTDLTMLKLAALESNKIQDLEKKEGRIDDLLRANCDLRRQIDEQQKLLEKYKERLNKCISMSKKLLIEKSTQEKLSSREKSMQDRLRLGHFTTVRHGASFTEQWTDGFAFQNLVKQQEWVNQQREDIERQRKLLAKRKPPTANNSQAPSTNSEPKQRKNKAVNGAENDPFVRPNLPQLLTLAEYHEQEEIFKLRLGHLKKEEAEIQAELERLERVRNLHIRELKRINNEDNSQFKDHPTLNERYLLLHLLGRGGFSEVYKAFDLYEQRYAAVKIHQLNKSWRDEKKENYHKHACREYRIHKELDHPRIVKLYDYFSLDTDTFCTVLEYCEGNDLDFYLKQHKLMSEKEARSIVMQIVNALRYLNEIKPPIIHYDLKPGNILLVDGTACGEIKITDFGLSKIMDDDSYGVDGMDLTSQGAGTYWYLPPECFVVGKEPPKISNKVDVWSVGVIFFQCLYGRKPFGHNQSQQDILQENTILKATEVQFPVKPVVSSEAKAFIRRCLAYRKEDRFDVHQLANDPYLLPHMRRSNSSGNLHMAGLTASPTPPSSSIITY

[13] = molecular target: Wee1-like protein kinase (Homo sapiens) (UniProt P30291); assay: Wee1(h) Eurofins kinase panel; settings: Compound concentration 1.0 uM
U2OS = assay: U2-OS cell line Proliferation assay; type: functional, Homo sapiens; settings: time 3 day
[14] = molecular target: 5'-AMP-activated protein kinase catalytic subunit alpha-2 (Homo sapiens, UniProt P54646)

Chain of ALK tyrosine kinase receptor (Homo sapiens) (Q9UM73 19-1620 limits assumed): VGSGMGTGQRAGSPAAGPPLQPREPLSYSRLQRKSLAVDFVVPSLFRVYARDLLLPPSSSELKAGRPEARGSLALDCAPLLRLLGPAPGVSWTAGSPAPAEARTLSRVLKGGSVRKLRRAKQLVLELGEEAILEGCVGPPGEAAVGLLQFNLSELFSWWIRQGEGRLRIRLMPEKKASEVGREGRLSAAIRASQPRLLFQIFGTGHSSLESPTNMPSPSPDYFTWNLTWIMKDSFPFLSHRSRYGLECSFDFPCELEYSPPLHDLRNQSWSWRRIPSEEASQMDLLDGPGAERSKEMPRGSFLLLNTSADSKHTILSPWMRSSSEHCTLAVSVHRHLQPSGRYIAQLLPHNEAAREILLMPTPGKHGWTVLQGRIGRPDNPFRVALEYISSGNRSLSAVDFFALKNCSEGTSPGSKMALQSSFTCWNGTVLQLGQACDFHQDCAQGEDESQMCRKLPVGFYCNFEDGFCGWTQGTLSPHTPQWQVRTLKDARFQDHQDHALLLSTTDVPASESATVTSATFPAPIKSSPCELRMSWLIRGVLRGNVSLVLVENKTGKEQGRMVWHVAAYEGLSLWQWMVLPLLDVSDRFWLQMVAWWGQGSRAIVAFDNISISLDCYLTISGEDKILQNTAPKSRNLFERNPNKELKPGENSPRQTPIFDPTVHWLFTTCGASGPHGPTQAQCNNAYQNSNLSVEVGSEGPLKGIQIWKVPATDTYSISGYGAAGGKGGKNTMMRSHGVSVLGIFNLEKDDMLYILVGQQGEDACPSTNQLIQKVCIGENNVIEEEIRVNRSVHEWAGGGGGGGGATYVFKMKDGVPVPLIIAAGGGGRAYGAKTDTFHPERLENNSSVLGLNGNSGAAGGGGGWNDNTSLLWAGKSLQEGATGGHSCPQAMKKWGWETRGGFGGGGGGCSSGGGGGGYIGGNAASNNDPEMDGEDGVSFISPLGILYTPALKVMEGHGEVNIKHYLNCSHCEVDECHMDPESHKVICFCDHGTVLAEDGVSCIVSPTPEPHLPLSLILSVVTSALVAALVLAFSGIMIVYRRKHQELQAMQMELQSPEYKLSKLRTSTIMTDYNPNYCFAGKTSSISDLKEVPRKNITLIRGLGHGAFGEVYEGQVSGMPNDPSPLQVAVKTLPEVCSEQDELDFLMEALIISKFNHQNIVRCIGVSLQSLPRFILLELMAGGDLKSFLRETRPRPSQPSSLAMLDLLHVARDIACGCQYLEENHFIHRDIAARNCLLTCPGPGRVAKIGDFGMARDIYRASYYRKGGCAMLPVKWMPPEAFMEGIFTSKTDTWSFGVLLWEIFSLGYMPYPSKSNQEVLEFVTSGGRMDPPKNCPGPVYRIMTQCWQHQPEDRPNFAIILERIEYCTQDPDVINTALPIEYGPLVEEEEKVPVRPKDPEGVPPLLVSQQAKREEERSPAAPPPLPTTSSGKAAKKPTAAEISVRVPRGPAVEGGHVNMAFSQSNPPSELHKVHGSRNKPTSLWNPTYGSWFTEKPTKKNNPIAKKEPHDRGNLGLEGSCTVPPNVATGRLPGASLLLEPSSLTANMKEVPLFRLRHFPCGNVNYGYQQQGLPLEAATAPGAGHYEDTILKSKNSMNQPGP
Chain of Insulin-like growth factor 1 receptor (Homo sapiens) (P08069 31-736 limits assumed): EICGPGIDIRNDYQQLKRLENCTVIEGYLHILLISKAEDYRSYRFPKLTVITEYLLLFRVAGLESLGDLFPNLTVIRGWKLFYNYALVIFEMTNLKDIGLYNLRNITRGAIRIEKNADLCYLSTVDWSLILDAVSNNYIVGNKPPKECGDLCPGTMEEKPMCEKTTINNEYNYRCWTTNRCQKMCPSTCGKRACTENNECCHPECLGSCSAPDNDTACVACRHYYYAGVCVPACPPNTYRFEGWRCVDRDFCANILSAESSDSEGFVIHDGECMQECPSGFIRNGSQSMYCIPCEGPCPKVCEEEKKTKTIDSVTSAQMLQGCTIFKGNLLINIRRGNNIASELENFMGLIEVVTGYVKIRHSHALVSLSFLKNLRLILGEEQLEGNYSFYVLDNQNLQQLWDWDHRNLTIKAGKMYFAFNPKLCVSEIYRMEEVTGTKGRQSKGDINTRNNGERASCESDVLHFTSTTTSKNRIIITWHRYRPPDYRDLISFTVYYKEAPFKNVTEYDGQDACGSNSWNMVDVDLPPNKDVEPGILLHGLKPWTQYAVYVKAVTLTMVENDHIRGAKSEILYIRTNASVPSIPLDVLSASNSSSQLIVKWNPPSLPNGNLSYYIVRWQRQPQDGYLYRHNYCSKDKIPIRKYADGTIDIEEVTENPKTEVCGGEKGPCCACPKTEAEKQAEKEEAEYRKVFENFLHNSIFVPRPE
Chain of Insulin-like growth factor 1 receptor (Homo sapiens) (P08069 741-1367 limits assumed): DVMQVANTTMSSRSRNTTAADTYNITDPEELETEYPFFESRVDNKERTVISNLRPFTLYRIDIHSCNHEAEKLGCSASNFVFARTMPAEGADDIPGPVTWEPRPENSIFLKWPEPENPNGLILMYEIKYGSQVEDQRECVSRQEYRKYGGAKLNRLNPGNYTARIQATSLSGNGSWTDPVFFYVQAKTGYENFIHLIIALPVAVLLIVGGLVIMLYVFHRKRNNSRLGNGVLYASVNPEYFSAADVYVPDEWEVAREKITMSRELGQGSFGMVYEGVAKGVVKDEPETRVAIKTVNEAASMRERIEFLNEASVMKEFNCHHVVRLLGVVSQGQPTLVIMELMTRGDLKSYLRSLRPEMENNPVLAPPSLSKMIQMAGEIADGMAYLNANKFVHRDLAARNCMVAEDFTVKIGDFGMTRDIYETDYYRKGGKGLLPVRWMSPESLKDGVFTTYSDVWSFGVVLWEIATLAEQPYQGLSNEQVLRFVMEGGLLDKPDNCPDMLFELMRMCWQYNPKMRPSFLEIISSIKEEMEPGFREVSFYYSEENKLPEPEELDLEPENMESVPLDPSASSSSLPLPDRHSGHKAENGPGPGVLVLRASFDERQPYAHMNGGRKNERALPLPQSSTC
Chain of Tyrosine-protein kinase ABL2 (Homo sapiens) (P42684 whole entry): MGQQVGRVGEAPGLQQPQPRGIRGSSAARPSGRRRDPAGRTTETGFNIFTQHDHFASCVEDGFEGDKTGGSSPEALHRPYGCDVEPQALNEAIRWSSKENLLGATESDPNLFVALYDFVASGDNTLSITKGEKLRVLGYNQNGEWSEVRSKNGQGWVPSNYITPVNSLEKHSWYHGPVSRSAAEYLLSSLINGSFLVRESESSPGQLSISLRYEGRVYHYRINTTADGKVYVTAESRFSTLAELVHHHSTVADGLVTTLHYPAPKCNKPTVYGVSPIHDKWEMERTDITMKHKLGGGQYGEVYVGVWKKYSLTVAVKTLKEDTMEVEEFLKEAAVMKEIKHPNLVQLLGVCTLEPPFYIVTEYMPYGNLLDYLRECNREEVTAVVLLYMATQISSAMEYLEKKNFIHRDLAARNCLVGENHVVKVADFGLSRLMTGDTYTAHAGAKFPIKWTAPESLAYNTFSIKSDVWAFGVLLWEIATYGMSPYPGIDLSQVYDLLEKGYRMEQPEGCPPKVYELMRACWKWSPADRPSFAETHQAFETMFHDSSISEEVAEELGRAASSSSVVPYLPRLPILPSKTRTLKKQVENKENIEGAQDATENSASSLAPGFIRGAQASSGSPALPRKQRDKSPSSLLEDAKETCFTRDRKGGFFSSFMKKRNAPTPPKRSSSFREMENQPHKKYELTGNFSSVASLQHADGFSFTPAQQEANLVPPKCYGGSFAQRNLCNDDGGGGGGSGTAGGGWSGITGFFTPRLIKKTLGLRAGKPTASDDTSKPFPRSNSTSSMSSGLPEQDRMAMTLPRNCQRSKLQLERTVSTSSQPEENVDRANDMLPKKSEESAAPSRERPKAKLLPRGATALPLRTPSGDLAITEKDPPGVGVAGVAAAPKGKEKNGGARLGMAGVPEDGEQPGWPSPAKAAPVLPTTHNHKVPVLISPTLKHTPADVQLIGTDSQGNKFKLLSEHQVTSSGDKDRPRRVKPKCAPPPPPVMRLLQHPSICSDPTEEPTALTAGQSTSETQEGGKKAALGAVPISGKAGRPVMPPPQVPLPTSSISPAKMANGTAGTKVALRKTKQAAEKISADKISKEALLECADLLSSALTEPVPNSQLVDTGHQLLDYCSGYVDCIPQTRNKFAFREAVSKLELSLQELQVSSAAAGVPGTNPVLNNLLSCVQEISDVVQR
Chain of Casein kinase I isoform gamma-3 (Homo sapiens) (Q9Y6M4 whole entry, looked up, canonical isoform): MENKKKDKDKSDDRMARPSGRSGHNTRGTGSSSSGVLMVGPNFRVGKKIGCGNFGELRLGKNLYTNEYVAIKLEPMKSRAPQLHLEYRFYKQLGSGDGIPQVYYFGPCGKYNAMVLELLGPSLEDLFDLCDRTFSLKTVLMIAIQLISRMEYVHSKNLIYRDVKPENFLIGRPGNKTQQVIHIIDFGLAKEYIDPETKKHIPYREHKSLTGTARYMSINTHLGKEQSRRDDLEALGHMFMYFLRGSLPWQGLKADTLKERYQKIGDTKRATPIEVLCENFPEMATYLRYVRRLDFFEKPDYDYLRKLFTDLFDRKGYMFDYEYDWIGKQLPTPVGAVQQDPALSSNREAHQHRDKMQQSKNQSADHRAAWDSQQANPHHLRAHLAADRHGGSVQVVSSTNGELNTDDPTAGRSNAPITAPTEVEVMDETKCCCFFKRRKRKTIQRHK
Chain of mTOR/FKBP12A/FKBP12B (Homo sapiens) (P62942 2-108 limits assumed, other chains not shown): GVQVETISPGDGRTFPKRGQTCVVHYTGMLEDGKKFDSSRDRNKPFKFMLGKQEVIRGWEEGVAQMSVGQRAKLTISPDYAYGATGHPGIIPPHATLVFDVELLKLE
Chain of mTOR/FKBP12A/FKBP12B (Homo sapiens) (P68106 whole entry partner, other chains not shown): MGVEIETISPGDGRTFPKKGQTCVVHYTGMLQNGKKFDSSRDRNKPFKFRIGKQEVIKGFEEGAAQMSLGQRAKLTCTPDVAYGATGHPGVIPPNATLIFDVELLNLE

Structure (SMILES): CCc1ccccc1C(=O)Nc1n[nH]c2c(C)c(F)c(C3C(C#N)=C(C)N(C)C(C)=C3C#N)cc12 [BAY-3827]
- % residual kinase activity [1]: 103%
- % residual kinase activity [2]: 101%
- % residual kinase activity [3]: 101%
- % residual kinase activity [4]: 105%
- % residual kinase activity [5]: 112%
- % residual kinase activity [6]: 100%
- % residual kinase activity [7]: 121%
- % residual kinase activity [8]: 98%
- % residual kinase activity [9]: 69%
- % residual kinase activity [10]: 23%
- % residual kinase activity [11]: 100%
- % residual kinase activity [12]: 103%
- % residual kinase activity [13]: 96%
- Cell Proliferation IC50 (U2OS): 18700 nM
- pIC50 [14]: 8.15
